Results taken from patent US10500232B2, “Small molecule cellular reprogramming to generate neuronal cells” (The J. David Gladstone Institutes, a testamentary trust …, priority 2013, dated 2019).
pEC50, pIC50, pKi: −log10 of the molar value. Where two headings read alike, the source gives them in different places.

Tests used:
mGlu4 = mGlu4 (Homo sapiens, UniProt Q14833); conditions: cited from earlier work
mGlu receptors = conditions: cited from earlier work
[1] = system: Tau-EGFP mouse embryonic fibroblasts transduced with Ascl1/Myt1l; experiment: High-throughput compound screening for Tau-EGFP expression and neuronal morphology; assay type: cell-based; conditions: individual compound plus doxycycline 7 days, analysed day 14; hits confirmed dose-dependently in larger well format
Experimental: Infected Tau-EGFP MEFs in 150-mm dishes were dissociated by trypsinization and plated to 384-well plates with 4×10^3 cells per well in 50 μl of N2B27 medium plus 2.0 μg ml^−1 doxycycline by using Multi-drop (Thermo Fisher). Fifty nanoliters of compounds from a collection of known drugs (˜3,000) were added to each well of infected cells by using BioMek (BD). After 3 days of compound treatment, […] N2B27 media were added to each well to keep the medium volume at 55-60 μl. The total period of compound treatment is 7 days. After that, medium was replaced with neuronal maturation medium for another 7 days. The cells were then fixed for immunostaining on Day 14. The high-throughput imaging was performed by using InCell 2000. Finally, the screening result was analyzed by InCell Workstation 2000.
To conduct the chemical screening, Tau-EGFP mouse embryonic fibroblasts were used that were transduced with an Ascl1/Myt1l coding region that was under control of tet operator. These cells were plated at 4,000 cells/well in 384-well plates containing chemically defined N2B27 media. After overnight incubation, the cells were treated for seven days with doxycycline to induce Ascl1/Myt1l expression and also contacted with individual compounds selected from a drug collection containing over 3000 compounds. The media was then replaced with compound-free standard neuronal media. Cells were fixed at day 14 then analyzed for Tau-EGFP expression and neuronal morphology by high content imaging (FIG. 4A and FIG. 3).

[2] = system: HDAC activity in HeLa extracts; conditions: read-out: IC50 for inhibition of HDAC activity; cited from earlier work
PDE4 = conditions: read-out: IC50 against PDE4; cited from earlier work
[3] = target: histone acetyltransferase p300 (Homo sapiens, UniProt Q09472); conditions: simplified analog of CTPB; cited from earlier work
[4] = system: histone deacetylases (HDACs); conditions: read-out: IC50 (histone deacetylase), cited from earlier work
SAPK2/p38 = SAPK2/p38 (Homo sapiens, UniProt Q16539); conditions: inhibitor of CK1 and ALK5; cited from earlier work
adenylate cyclase 1 = adenylate cyclase 1 (Homo sapiens, UniProt Q08828); conditions: cited from earlier work
[5] = target: rat Group II mGlu receptor; conditions: read-out: IC50 against rat Group II mGlu receptor; cited from earlier work
various mGlu receptors = conditions: Ki depends on which receptor is bound; cited from earlier work
mGlu(3) receptors = conditions: rodent and human; cited from earlier work
mGlu(2) receptors = conditions: rodent and human; cited from earlier work
[6] = system: STRC2-Ascl1/Myt1l neuronal cells from MEFs; experiment: Patch clamp electrophysiology of STRC2-Ascl1/Myt1l induced neuronal cells; assay type: cell-based, mouse
[7] = system: RFP-positive miR124-RFP/Brn2 human fibroblast-derived cells; experiment: Patch clamp electrophysiology of STRC2-treated miR124-RFP/Brn2 cells; assay type: cell-based

Sequence of mGlu4 (Q14833 33-912): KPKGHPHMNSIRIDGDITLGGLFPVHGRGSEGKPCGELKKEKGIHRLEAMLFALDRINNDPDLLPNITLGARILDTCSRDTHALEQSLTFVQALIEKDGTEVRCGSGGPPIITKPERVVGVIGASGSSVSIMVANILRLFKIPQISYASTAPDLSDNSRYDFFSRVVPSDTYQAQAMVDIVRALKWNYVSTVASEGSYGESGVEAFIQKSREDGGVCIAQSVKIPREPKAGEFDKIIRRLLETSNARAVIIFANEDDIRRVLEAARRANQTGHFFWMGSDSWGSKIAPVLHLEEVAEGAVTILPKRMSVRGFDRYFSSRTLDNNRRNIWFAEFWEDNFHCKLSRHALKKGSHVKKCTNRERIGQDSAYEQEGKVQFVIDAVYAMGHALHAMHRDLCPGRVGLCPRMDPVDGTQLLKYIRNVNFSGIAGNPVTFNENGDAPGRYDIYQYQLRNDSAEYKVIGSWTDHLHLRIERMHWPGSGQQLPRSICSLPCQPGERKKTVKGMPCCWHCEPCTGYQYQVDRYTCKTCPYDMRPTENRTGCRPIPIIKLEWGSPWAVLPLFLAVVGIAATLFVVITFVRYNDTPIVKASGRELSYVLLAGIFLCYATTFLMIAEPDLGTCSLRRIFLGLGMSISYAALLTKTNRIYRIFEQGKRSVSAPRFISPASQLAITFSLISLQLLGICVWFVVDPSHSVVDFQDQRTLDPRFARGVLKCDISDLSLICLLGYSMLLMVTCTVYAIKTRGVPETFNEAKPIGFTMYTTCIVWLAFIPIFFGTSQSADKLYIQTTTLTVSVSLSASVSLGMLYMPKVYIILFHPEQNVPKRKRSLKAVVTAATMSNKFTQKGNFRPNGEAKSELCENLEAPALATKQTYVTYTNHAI
Sequence of adenylate cyclase 1 (Q08828 whole entry): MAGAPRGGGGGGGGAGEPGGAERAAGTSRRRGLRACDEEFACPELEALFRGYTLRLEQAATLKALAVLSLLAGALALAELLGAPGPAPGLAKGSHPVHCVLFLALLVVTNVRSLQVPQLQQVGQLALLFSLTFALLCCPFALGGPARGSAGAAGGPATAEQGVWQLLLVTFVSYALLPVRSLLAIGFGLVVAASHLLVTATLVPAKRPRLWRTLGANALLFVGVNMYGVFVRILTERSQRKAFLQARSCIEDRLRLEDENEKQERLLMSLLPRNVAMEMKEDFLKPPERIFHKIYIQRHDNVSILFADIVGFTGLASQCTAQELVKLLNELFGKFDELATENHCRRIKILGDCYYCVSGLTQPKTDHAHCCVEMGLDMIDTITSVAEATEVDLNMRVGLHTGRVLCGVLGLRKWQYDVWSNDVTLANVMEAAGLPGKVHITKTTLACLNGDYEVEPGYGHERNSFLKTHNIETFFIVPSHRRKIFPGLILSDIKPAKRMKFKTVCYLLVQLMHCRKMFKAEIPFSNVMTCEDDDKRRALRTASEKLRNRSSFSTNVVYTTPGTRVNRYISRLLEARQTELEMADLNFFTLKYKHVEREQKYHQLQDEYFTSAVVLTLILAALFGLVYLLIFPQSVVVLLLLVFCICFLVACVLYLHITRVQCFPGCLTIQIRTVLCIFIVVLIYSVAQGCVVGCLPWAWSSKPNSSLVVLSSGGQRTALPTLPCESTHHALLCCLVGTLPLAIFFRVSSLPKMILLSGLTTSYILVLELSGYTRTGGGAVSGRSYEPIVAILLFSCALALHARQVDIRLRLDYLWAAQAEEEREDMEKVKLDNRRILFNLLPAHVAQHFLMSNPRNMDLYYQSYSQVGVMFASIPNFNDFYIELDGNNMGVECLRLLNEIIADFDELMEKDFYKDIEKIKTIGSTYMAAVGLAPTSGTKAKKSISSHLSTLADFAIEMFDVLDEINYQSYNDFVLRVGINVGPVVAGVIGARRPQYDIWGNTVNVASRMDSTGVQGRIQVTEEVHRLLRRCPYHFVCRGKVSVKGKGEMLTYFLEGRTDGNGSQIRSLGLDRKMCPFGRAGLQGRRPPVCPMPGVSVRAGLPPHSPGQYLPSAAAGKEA
Sequence of SAPK2/p38 (Q16539 whole entry): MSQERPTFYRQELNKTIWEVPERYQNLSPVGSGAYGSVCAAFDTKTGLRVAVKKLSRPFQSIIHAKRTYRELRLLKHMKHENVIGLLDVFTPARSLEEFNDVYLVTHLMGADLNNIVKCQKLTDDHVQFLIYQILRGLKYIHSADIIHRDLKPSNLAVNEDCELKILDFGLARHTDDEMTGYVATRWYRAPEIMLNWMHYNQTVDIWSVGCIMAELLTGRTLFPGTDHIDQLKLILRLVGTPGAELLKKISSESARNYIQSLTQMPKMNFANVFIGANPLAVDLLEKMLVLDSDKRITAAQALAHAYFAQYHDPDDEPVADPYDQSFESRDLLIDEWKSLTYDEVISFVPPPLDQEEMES
Sequence of histone acetyltransferase p300 (Q09472 whole entry, species assumed): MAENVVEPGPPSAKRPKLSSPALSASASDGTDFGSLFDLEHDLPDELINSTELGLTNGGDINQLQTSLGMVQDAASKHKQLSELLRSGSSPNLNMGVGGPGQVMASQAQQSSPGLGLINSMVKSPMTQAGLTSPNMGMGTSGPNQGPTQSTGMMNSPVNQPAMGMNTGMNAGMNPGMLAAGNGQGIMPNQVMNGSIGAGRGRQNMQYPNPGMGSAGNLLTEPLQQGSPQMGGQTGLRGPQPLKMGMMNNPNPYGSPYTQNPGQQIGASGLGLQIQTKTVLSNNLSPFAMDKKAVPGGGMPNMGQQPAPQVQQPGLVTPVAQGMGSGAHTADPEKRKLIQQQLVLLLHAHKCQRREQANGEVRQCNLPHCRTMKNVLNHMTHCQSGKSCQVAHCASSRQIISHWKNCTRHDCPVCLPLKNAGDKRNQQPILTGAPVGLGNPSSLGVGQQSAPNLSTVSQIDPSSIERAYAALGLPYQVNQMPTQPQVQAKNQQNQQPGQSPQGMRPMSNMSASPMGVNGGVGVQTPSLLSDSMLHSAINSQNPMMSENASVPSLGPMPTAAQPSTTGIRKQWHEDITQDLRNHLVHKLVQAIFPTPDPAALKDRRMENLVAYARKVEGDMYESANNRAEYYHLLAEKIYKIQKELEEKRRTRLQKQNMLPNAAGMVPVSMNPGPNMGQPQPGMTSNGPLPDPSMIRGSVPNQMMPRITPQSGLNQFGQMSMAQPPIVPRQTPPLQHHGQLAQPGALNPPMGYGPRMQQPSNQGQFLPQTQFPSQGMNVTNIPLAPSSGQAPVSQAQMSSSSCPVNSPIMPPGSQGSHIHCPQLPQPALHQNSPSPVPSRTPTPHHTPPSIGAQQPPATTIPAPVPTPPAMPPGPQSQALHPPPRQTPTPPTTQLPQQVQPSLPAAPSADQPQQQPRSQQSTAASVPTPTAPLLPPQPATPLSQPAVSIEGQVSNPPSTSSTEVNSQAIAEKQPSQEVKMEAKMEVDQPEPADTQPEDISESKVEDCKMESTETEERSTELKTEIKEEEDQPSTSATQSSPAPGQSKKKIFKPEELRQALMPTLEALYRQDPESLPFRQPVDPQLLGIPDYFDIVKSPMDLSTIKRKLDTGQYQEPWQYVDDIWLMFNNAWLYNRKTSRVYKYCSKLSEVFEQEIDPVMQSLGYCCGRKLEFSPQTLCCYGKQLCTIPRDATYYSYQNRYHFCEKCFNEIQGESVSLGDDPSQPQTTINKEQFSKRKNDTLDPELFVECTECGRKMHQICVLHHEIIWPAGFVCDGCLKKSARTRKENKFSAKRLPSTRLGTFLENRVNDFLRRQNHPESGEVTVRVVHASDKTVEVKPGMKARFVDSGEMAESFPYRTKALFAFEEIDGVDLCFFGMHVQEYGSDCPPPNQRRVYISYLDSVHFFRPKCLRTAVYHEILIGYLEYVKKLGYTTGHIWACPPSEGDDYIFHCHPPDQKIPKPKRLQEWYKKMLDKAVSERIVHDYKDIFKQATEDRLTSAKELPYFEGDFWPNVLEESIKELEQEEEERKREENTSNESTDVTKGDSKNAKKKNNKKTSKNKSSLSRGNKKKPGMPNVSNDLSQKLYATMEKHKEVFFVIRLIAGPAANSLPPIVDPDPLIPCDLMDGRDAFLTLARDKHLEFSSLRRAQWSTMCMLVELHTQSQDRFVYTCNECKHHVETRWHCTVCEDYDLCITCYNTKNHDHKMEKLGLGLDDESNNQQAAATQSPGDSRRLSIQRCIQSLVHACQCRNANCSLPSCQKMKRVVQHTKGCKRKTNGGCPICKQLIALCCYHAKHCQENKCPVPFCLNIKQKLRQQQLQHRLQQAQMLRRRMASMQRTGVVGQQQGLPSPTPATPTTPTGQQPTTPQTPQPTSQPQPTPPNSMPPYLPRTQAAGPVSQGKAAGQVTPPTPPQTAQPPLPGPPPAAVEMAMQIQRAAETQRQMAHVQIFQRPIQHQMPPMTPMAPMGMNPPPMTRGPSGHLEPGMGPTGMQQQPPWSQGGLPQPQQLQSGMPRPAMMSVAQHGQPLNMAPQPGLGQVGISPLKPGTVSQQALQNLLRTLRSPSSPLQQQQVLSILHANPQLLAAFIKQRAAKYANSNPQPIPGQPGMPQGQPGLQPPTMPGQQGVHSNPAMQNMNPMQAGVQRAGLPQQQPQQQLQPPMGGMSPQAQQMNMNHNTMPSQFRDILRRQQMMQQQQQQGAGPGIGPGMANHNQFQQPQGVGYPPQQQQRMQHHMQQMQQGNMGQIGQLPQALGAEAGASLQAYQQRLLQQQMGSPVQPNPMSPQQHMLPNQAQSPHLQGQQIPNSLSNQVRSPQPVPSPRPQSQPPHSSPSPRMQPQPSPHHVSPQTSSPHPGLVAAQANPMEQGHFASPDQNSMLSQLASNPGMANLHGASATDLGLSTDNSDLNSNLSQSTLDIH

O=C(Nc1cc(Cl)cc(Cl)c1)[C@H]1CCCC[C@H]1C(=O)O (relative stereo) [VU0155041, cis-2-[[(3,5-dichlorophenyl)amino]carbonyl]cyclohexanecarboxylic acid]
pEC50 (mGlu4): 6.00

N[C@@]1(C(=O)O)CC[C@@H](C(=O)O)C1 [ACPD, (1S,3R)-1-aminocyclopentane-1,3-dicarboxylic acid]
pEC50 (mGlu receptors): 4.40 to 5.05
induction of Tau-EGFP expression and neuronal morphology (screen hit) [1]: induce Tau-EGFP expression and a neuronal morphology

Nc1ccccc1NC(=O)CCCCCCC(=O)Nc1ccccc1 [BML-210, N1-(2-aminophenyl)-N8-phenyl-octanediamide]
pIC50 [2]: ~4.10

O=C(O)c1ccc(-c2ccc3cc(O)c(C45CC6CC(CC(C6)C4)C5)cc3c2)cc1 [CD1530, 4-(6-hydroxy-7-tricyclo[3.3.1.13,7]dec-1-yl-2-naphthalenyl)benzoic acid]
induction of Tau-EGFP expression and neuronal morphology (screen hit) [1]: induce Tau-EGFP expression and a neuronal morphology

COc1ccc([C@H](Cc2ccncc2)c2ccccc2)cc1OC1CCCC1 [CDP-840, 4-[(2R)-2-(3-cyclopentyloxy-4-methoxyphenyl)-2-phenylethyl]pyridine]
pIC50 (PDE4): ~5.00

Cc1c[nH]c(-c2cnc(NCCNc3ccc(C#N)cn3)nc2-c2ccc(Cl)cc2Cl)n1 [CHIR99021, 6-(2-(4-(2,4-dichlorophenyl)-5-(4-methyl-1H-imidazol-2-yl)pyrimidin-2-ylamino)ethylamino)nicotinonitrile]
induction of Tau-EGFP expression and neuronal morphology (screen hit) [1]: induce Tau-EGFP expression and a neuronal morphology

CCOc1ccccc1C(=O)Nc1ccc(Cl)c(C(F)(F)F)c1 [CTB, N-(4-chloro-3-trifluoromethyl-phenyl)-2-ethoxybenzamide]
activity as p300 activator relative to CTPB [3]: comparable or higher activity

CCCCCCCCCCCCCCCc1cccc(OCC)c1C(=O)Nc1ccc(Cl)c(C(F)(F)F)c1 [CTPB, N-(4-chloro-3-trifluoromethyl-phenyl)-2-ethoxy-6-pentadecyl-benzamide]
induction of Tau-EGFP expression and neuronal morphology (screen hit) [1]: induce Tau-EGFP expression and a neuronal morphology

CC1(C)NC(=O)C(CCCCCC(=O)[C@H]2CO2)NC(=O)C2CCCN2C(=O)[C@@H](Cc2ccccc2)NC1=O (stereo partly drawn) [Chlamydocin, (3R)-3-benzyl-6,6-dimethyl-9-[6-[(2R)-oxiran-2-yl]-6-oxohexyl]-1,4,7,10-tetrazabicyclo[10.3.0]pentadecane-2,5,8,11-tetrone]
pIC50 ([4]; isoform not stated): ~9.82

Cc1cc2c3c(c1)C(c1ccccc1)=N[C@@H](NC(=O)c1ccncc1)C(=O)N3CC2 [Cl-1018, N-[(3R)-9-methyl-4-oxo-1-phenyl-3,4,6,7-tetrahydro[1,4]diazepino[6,7,1-hi]indol-3-yl]pyridine-4-carboxamide]
pIC50 (PDE4): ~5.52

NC(=O)c1ccc(-c2nc(-c3ccc4c(c3)OCCO4)c(-c3ccccn3)[nH]2)cc1 [D 4476, 4-[4-(2,3-Dihydro-1,4-benzodioxin-6-yl)-5-(2-pyridinyl)-IH-imidazol-2-yl]benzamide]
selectivity over SAPK2/p38 (SAPK2/p38): greater than 20 fold

COc1ccc(C(=O)Nc2cc(Cl)cnc2Cl)c2cccnc12 [D-4418, N-(2,5-dichloropyridin-3-yl)-8-methoxyquinoline-5-carboxamide]
pIC50 (PDE4): ~6.77

C=C[C@@]1(C)CC(=O)[C@]2(O)[C@@]3(C)[C@@H](O)CCC(C)(C)[C@@H]3[C@H](O)[C@H](OC(C)=O)[C@@]2(C)O1 [Forskolin]
pIC50 (adenylate cyclase 1): 6.82 to 7.40

CCOC(=O)c1ccc(N(C)C2CSC(c3ccccc3)=N2)cc1 (stereo not shown) [KHS2, ethyl 4-(methyl(2-phenyl-4,5-dihydrothiazol-4-yl)amino)benzoate]
induction of Tau-EGFP expression and neuronal morphology (screen hit) [1]: induce Tau-EGFP expression and a neuronal morphology

N[C@@]1(C(=O)O)CC[C@H]2[C@H](C(=O)O)[C@H]21 [LY354740, 1S,2S,5R,6S-2-aminobicyclo[3.1.0]hexane-2,6-dicarboxylate]
pIC50 [5]: ~6.60

N[C@@]1(C(=O)O)COC2C1[C@H]2C(=O)O (stereo partly drawn) [LY379268, (4R,6R)-4-amino-2-oxabicyclo[3.1.0]hexane-4,6-dicarboxylic acid]
pKi (various mGlu receptors): 4.00 to 8.57

NC1(C(=O)O)CC(F)C2C(C(=O)O)C21 (stereo not shown) [LY459477, 2-amino-4-fluorobicyclo[3.1.0]hexane-2,6-dicarboxylic acid]
potency for mGlu(3) receptors (mGlu(3) receptors): 1 to 2 nM
potency for mGlu(2) receptors (mGlu(2) receptors): 1 to 2 nM

NC(=O)[C@@H]1CCCC[C@@H]1C(=O)Nc1ccc(Cl)c(Cl)c1 [Lu AF21934, (1S,2R)-N1-(3,4-dichlorophenyl)cyclohexane-1,2-dicarboxamide]
pEC50 (mGlu4): 6.30

NC(=O)[C@H]1CCCC[C@H]1C(=O)Nc1ccc(Cl)c(Cl)c1 [Lu AF21935, (1R,2S)-N1-(3,4-dichlorophenyl)cyclohexane-1,2-dicarboxamide]
pEC50 (mGlu4): < 5.00

Nc1ccccc1NC(=O)c1ccc(CNc2nccc(-c3cccnc3)n2)cc1 [MGCD0103, N-(2-aminophenyl)-4-[[(4-pyridin-3-ylpyrimidin-2-yl)amino]methyl]benzamide]
pIC50 ([4]; isoform not stated): ~7.00

Nc1ccccc1NC(=O)c1ccc(CNC(=O)OCc2cccnc2)cc1 [MS-27-275, pyridin-3-ylmethyl-N-[[4-[(2-aminophenyl)carbamoyl]phenyl]methyl]carbamate]
pIC50 [4]: 6.00 to 7.00

NS(=O)(=O)c1cccc2c1c([N+](=O)[O-])cc1nc(O)c(O)nc12 [NBQX, 2,3-dihydroxy-6-nitro-7-sulfamoylbenzo quinoxaline]
effect on spontaneous excitatory postsynaptic current (sEPSC) ([6]; AMPA receptor antagonist, 10 μM): blocked

NC(=O)c1ccc(-c2nc(-c3ccc4c(c3)OCO4)c(-c3ccccn3)[nH]2)cc1 [SB 431542, 4-[4-(1,3-benzodioxol-5-yl)-5-(2-pyridinyl)-1H-imidazol-2-yl]benzamide]
induction of Tau-EGFP expression and neuronal morphology (screen hit) [1]: induce Tau-EGFP expression and a neuronal morphology

COc1ccc(C(=O)Nc2c(Cl)c[n+]([O-])cc2Cl)c2ccc(C(F)(F)F)nc12 [Sch-351591]
pIC50 (PDE4): 6.82

Cc1cc(C)cc(C(=O)OC2CC3CCC(C2)N3C)c1 (stereo not shown) [TDMB, Tropanyl-3,5-dimethylbenzoate]
induction of Tau-EGFP expression and neuronal morphology (screen hit) [1]: induce Tau-EGFP expression and a neuronal morphology

NC1=N[C@H](O)[C@H]2[C@H]3O[C@]4(O)O[C@@H]([C@@H](O)[C@@]2(N1)[C@@H]4O)[C@]3(O)CO [TTX, tetrodotoxin]
effect on trains of action potentials [7]: abolished

CC(/C=C/C(=O)NO)=C\[C@@H](C)C(=O)c1ccc(N(C)C)cc1 [Trichostatin A, (R,2E,4E)-6-(4-(dimethylamino)benzoyl)-N-hydroxy-4-methylhepta-2,4-dienamide]
pIC50 [4]: ~8.74
induction of Tau-EGFP expression and neuronal morphology (screen hit) [1]: induce Tau-EGFP expression and a neuronal morphology

C[C@@H](N)[C@H]1CC[C@H](C(=O)Nc2ccncc2)CC1 [Y27632, 4-[(1R)-1-aminoethyl]-N-pyridin-4-ylcyclohexane-1-carboxamide]
induction of Tau-EGFP expression and neuronal morphology (screen hit) [1]: induce Tau-EGFP expression and a neuronal morphology

COc1ccc(C2(C#N)CCC(C(=O)O)CC2)cc1OC1CCCC1 (stereo not shown) [ariflo, 4-cyano-4-(3-cyclopentyloxy-4-methoxyphenyl)cyclohexane-1-carboxylic acid]
pIC50 (PDE4): ~6.82

O=C(Nc1c(Cl)cncc1Cl)c1ccc(OC(F)F)c(OCC2CC2)c1 [roflumilast, 3-(cyclopropylmethoxy)-N-(3,5-dichloropyridin-4-yl)-4-(difluoromethoxy)benzamide]
pIC50 (PDE4): 9.22

COc1ccc(C2CNC(=O)C2)cc1OC1CCCC1 (stereo not shown) [rolipram, 4-(3-cyclopentyloxy-4-methoxyphenyl)pyrrolidin-2-one]
induction of Tau-EGFP expression and neuronal morphology (screen hit) [1]: induce Tau-EGFP expression and a neuronal morphology

CCc1nn(C2CCCC2)c2c1CCn1c(-c3cccs3)nnc1-2 [tofimilast]
pIC50 (PDE4): ~7.89

(2S,3S,4R,5R)-3,4-dihydroxy-5-[6-[(3-iodophenyl)methylamino]purin-9-yl]-N-ethyloxolane-2-carboxamide [IB-MECA]
induction of Tau-EGFP expression and neuronal morphology (screen hit) [1]: induce Tau-EGFP expression and a neuronal morphology

picrotoxin
effect on inhibitory postsynaptic currents (sIPSCs) ([6]; GABAA receptor antagonist, 50 μM): blocked
